Assay results published in patent publication US20260028338A1, “HETEROBIFUNCTIONAL COMPOUNDS AND METHODS OF TREATING DISEASE” (Halda Therapeutics OpCo, Inc., priority 2023, published 2026).

Legend:
[1] = biological target: T1, His-tagged BRD4 BD2 (333-460) (Homo sapiens, UniProt O60885); assay: AlphaLISA competition assay, BRD4 BD2; format: binding; conditions: BRD4-BD2, AlphaLISA competition with biotinylated histone H4K5/8/12/16(Ac) peptide, 20 nM
T1 construct: The same assay was developed for His-tagged BRD4 BD2 (333-460) and biotinylated histone H4K5/8/12/16(Ac) peptide
Method: (§1) Exemplary compounds were tested for ability to bind to bromodomain-containing protein 4 (BRD4).
(§2) Compounds were tested using a developed AlphaLISA competition assay. Briefly, His-tagged BRD4 BD1 (46-168) and biotinylated histone H4K5/8/12/16(Ac) peptide (ANASPEC, AS-64989-1) were incubated in 20 mM HEPES pH 7.5, 100 mM NaCl, 0.5 mM TCEP, 0.1% BSA, 0.02% CHAPS at a final concentration of 10 nM. Test compounds were serially diluted ten times in the same buffer and were added to the BRD4-peptide mixture for 1 h incubation at room temperature. Following incubation, Streptavidin AlphaLISA acceptor beads (PerkinElmer, AL125M) were added to BRD4-peptide-compound samples to a final concentration of 0.01 mg/mL for a 0.5 h incubation at room temperature in the dark. Following incubation, the same amount of Nickel Chelate Alpha donor beads (PerkinElmer, AS101M) were added to the samples for a final 1 h incubation. The AlphaLISA signals were measured using an EnVision plate reader (PerkinElmer). The data were uploaded to Screening Ultra (Dotmatics) to determine the half-maximal inhibitory concentration (IC50) for each test compound.
The same assay was developed for His-tagged BRD4 BD2 (333-460) and biotinylated histone H4K5/8/12/16(Ac) peptide at a final concentration of 20 nM.

[2] = system: T-Rex 293 cell line SC cells having increased expression of BCL6 protein; assay: Cellular growth inhibition assay, T-Rex 293 SC cells with doxycycline (CellTiter-Glo); format: cell-based; conditions: T-Rex 293 SC cells with 10 ng/mL doxycycline (increased BCL6 expression), 72 hours, CellTiter-Glo 2.0
Method: (§3) Exemplary compounds were tested for ability to inhibit the proliferation of the following types of cells: (i) a T-Rex 293 cell line having increased expression of BCL6 protein due to exposure of doxycycline and (ii) a T-Rex 293 cell line lacking increased expression of BCL6 protein.
(§4) The following types of cells were prepared for this experiment: (i) a T-Rex 293 cell line having increased expression of BCL6 protein due to exposure to doxycycline and (ii) a T-Rex 293 cell line lacking increased expression of BCL6 protein. Ability of the test compounds to inhibit proliferation of the foregoing cell types was evaluated according to the procedures set forth below.
(§5) The doxycycline-inducible BCL6 protein expressing cell line was established using the following protocol: T-Rex 293 cells were purchased from Invitrogen (Cat #R71007) and transfected using Lipofectamine 2000 with the wild-type BCL6 protein sequence cloned into the pcDNA4/TO vector. Transfected cells were selected using 400 μg/mL Zeocin (Invitrogen Cat #R25001). Following selection, single clones were raised and maintained in Dulbecco's Modified Eagle Medium (DMEM) supplemented with 10% w/w Tetracycline-free fetal bovine serum (FBS) and 250 μg/mL Zeocin. Clones were analyzed for expression of BCL6 protein in the presence and absence of 10 ng/mL doxycycline (Sigma Cat #D9891), and a single doxycycline-inducible clone (hereinafter “SC”) was selected for use in downstream assays.
(§6) The SC cells were seeded on poly-D-lysine coated, black clear-bottom 384-well plates at 2500/well, in 25 μL Dulbecco's Modified Eagle Medium (DMEM) supplemented with 10% w/w Tetracycline-free fetal bovine serum (FBS) and 1% w/w pen-strep, with or without 10 ng/mL doxycycline. Pen-Strep is a commercially available mixture of penicillin G and streptomycin, which is used in mammalian cell culture media to prevent bacterial contamination. Dulbecco's Modified Eagle Medium (DMEM) supplemented with 10% w/w Tetracycline-free fetal bovine serum (FBS) and 1% w/w pen-strep, with or without 10 ng/mL doxycycline is herein referred to as Treatment Medium. Following seeding of cells in the plates, the plates were spun at 300×g for 30 seconds, then equilibrated to room temperature for 30 minutes, and then deposited in a humidified tissue culture incubator maintained at 37° C. with 5% CO2.
(§7) At 24 hours after seeding of the cells, dilutions of test compound were prepared in DMSO and dissolved in Treatment Medium, to achieve a final DMSO concentration of 0.5% w/w, thereby providing the Test Compound Solution. A 25 μL aliquot of the Test Compound Solution was added to cells in the well plates. An equal volume of a solution containing DMSO and Treatment Medium was used as a negative control. Following treatment of cells with Test Compound Solution or said equal volume of a solution containing DMSO and Treatment Medium, the plates were spun at 300×g for 30 seconds, and then left in an incubator for 72 hours.
(§8) At the end of the treatment duration, cell viability was quantified with CellTiter-Glo 2.0 reagent (Promega Cat #G9243). For this purpose, plates were equilibrated to room temperature for 30 minutes, and then 25 μL of CellTiter-Glo 2.0 reagent was added to cells in the plate wells. Plates were then agitated on a shaker for two minutes at 500 rpm and subsequently incubated at room temperature for 10 minutes. Following incubation, the plates were spun at 3000×g for 30 seconds, then sealed with an optical adhesive cover, and luminescence readings were measured with an EnVision Plate Reader (Perkin Elmer).
(§9) Data was normalized using zero luminescence for baseline. A four-parameter non-linear regression curve fit was applied to dose-response data in GraphPad Prism data analysis software to determine the half-maximal growth inhibitory concentration (GI50) for each test compound.

[3] = system: T-Rex 293 cell line SC cells lacking increased expression of BCL6 protein; assay: Cellular growth inhibition assay, T-Rex 293 SC cells without doxycycline (CellTiter-Glo); format: cell-based; conditions: T-Rex 293 SC cells not exposed to doxycycline (no increased BCL6 expression), 72 hours, CellTiter-Glo 2.0
Method: as §3, §4, §5, §6, §7, §8, §9

[4] = biological target: T2, His-tagged BRD4 BD1 (46-168) (Homo sapiens, UniProt O60885); assay: AlphaLISA competition assay, BRD4 BD1; format: binding; conditions: BRD4-BD1, AlphaLISA competition with biotinylated histone H4K5/8/12/16(Ac) peptide, 10 nM
T2 construct: His-tagged BRD4 BD1 (46-168) and biotinylated histone H4K5/8/12/16(Ac) peptide
Method: as §1, §2

Farage cell line = assay: Cellular growth inhibition assay, Farage cells (CellTiter-Glo); format: cell-based; conditions: Farage cell line (DLBCL), 72 hours, CellTiter-Glo 2.0
Method: Exemplary compounds were tested for ability to inhibit the proliferation of Su-DHL-4 and Farage cells. Su-DHL-4 and Farage cells are commercially available diffuse large B cell lymphoma cell lines (DLBCL).
Su-DHL-4 and Farage cells were purchased from American Type Cell Culture (ATCC Cat #CRL-2957/CRL-2630) and then seeded on poly-D-lysine coated, black clear-bottom 384-well plates at 3000/well in 25 μL Roswell Park Memorial Institute media (RPMI-1640) supplemented with 10% w/w Fetal bovine serum (FBS) and 1% w/w Pen-Strep. Pen-Strep is a commercially available mixture of penicillin G and streptomycin, which is used in mammalian cell culture media to prevent bacterial contamination. Roswell Park Memorial Institute media (RPMI-1640) supplemented with 10% w/w fetal bovine serum (FBS), and 1% w/w Pen-Strep is herein referred to as Treatment Medium. Following seeding of cells in the plates, the plates were spun at 300×g for 30 seconds, then equilibrated to room temperature for 30 minutes, and then deposited in a humidified tissue culture incubator maintained at 37° C. with 5% CO2.
as §7, §8, §9

IC50 [1] | IC50 [4] | SMILES | GI50 [2] | GI50 [3] | GI50 (Farage cell line)
5 to 50 nM | 5 to 50 nM | CCS(=O)(=O)Nc1ccc(Oc2cccc(OCCCN3CCN(CC4CCN(c5ncc(Cl)c(Nc6ccc7c(c6)cc(OCC(=O)NC)c(=O)n7C)n5)CC4)CC3)c2)c(-c2cn(C)c(=O)c3[nH]ccc23)c1 [Compound I-6] | < 500 nM | < 500 nM | –
5 to 50 nM | 5 to 50 nM | CCS(=O)(=O)Nc1ccc(Oc2ccc(OCCN3CCN(CC4CCN(c5ncc(Cl)c(Nc6ccc7c(c6)cc(OCC(=O)NC)c(=O)n7C)n5)CC4)CC3)cc2)c(-c2cn(C)c(=O)c3[nH]ccc23)c1 [Compound I-7] | < 500 nM | < 500 nM | –
5 to 50 nM | 5 to 50 nM | CCS(=O)(=O)Nc1ccc(Oc2ccc(OCCCN3CCN(CC4CCN(c5ncc(Cl)c(Nc6ccc7c(c6)cc(OCC(=O)NC)c(=O)n7C)n5)CC4)CC3)cc2)c(-c2cn(C)c(=O)c3[nH]ccc23)c1 [Compound I-8] | < 500 nM | < 500 nM | –
5 to 50 nM | 5 to 50 nM | CCS(=O)(=O)Nc1ccc(Oc2cccc(OCCCCN3CCN(CC4CCN(c5ncc(Cl)c(Nc6ccc7c(c6)cc(OCC(=O)NC)c(=O)n7C)n5)CC4)CC3)c2)c(-c2cn(C)c(=O)c3[nH]ccc23)c1 [Compound I-9] | < 500 nM | < 500 nM | –
< 5 nM | 5 to 50 nM | CCS(=O)(=O)Nc1ccc(Oc2ccc(OCCCCN3CCN(CC4CCN(c5ncc(Cl)c(Nc6ccc7c(c6)cc(OCC(=O)NC)c(=O)n7C)n5)CC4)CC3)cc2)c(-c2cn(C)c(=O)c3[nH]ccc23)c1 [Compound I-10] | < 500 nM | < 500 nM | –
5 to 50 nM | 5 to 50 nM | CCS(=O)(=O)Nc1ccc(Oc2cccc(OCCN3CCN(CCCC4CCN(c5ncc(Cl)c(Nc6ccc7c(c6)cc(OCC(=O)NC)c(=O)n7C)n5)CC4)CC3)c2)c(-c2cn(C)c(=O)c3[nH]ccc23)c1 [Compound I-11] | < 500 nM | < 500 nM | –
5 to 50 nM | 5 to 50 nM | CCS(=O)(=O)Nc1ccc(Oc2ccc(OCCN3CCN(CCCC4CCN(c5ncc(Cl)c(Nc6ccc7c(c6)cc(OCC(=O)NC)c(=O)n7C)n5)CC4)CC3)cc2)c(-c2cn(C)c(=O)c3[nH]ccc23)c1 [Compound I-12] | < 500 nM | < 500 nM | –
5 to 50 nM | 5 to 50 nM | CCS(=O)(=O)Nc1ccc(Oc2cccc(OCCN3CCN(CCC4CCN(c5ncc(Cl)c(Nc6ccc7c(c6)cc(OCC(=O)NC)c(=O)n7C)n5)CC4)CC3)c2)c(-c2cn(C)c(=O)c3[nH]ccc23)c1 [Compound I-13] | < 500 nM | < 500 nM | –
< 5 nM | 5 to 50 nM | CCS(=O)(=O)Nc1ccc(Oc2ccc(OCCN3CCN(CCC4CCN(c5ncc(Cl)c(Nc6ccc7c(c6)cc(OCC(=O)NC)c(=O)n7C)n5)CC4)CC3)cc2)c(-c2cn(C)c(=O)c3[nH]ccc23)c1 [Compound I-14] | < 500 nM | 500 to 1500 nM | –
< 5 nM | 5 to 50 nM | CCS(=O)(=O)Nc1ccc(Oc2ccc(CCN3CCN(CC4CCN(c5ncc(Cl)c(Nc6ccc7c(c6)cc(OCC(=O)NC)c(=O)n7C)n5)CC4)CC3)cc2)c(-c2cn(C)c(=O)c3[nH]ccc23)c1 [Compound I-16, 2-[[6-[[5-chloro-2-[4-[[4-[2-[4-[4-(ethylsulfonylamino)-2-(6-methyl-7-oxo-1H-pyrrolo[2,3-c]pyridin-4-yl)phenoxy]phenyl]ethyl]piperazin-1-yl]methyl]-1-piperidyl]pyrimidin-4-yl]amino]-1-methyl-2-oxo-3-quinolyl]oxy]-N-methyl-acetamide] | < 500 nM | < 500 nM | –
5 to 50 nM | 5 to 50 nM | CCS(=O)(=O)Nc1ccc(Oc2cccc(CCN3CCN(CC4CCN(c5ncc(Cl)c(Nc6ccc7c(c6)cc(OCC(=O)NC)c(=O)n7C)n5)CC4)CC3)c2)c(-c2cn(C)c(=O)c3[nH]ccc23)c1 [Compound I-17] | > 3000 nM | < 500 nM | –
– | – | CNC(=O)COc1cc2cc(Nc3nc(N4CCC5(CC4)CC(Oc4ccc(C6=N[C@@H](C)c7nnc(C)n7-c7sc(C)c(C)c76)cc4)C5)ncc3Cl)ccc2n(C)c1=O [Compound I-28, 2-[[6-[[5-chloro-2-[2-[4-[(9S)-4,5,9,13-tetramethyl-3-thia-1,8,11,12-tetrazatricyclo[8.3.0.02,6]trideca-2 (6),4,7,10,12-pentaen-7-yl]phenoxy]-7-azaspiro[3.5]nonan-7-yl]pyrimidin-4-yl]amino]-1-methyl-2-oxo-3-quinolyl]oxy]-N-methyl-acetamide] | < 500 nM | < 500 nM | < 500 nM
– | – | CNC(=O)COc1cc2cc(Nc3nc(N4CCC(CN5CCC6(CC5)CC(CC5CC(Oc7ccc(C(C)(C)O)cc7-c7cn(C)c(=O)c8[nH]ccc78)C5)C6)CC4)ncc3Cl)ccc2n(C)c1=O (stereo not shown) [Compound I-53] | < 500 nM | < 500 nM | < 500 nM
– | – | CNC(=O)COc1cc2cc(Nc3nc(N4CCC(CN5CCC6(CC5)CC(CC5CC(Oc7ccc(C(C)(C)O)cc7-c7cn(C)c(=O)c8[nH]ccc78)C5)C6)CC4)ncc3Cl)ccc2n(C)c1=O (stereo not shown) [Compound I-54] | < 500 nM | – | < 500 nM
